From PubChem BioAssay AID1963438 (Molecular Pharmacology Branch, DTP, NCI, 2024)

System: NCI-H510 multicellular tumor spheroid growth, % test/control
Test: Anticancer human tumor NCI-H510 cell line growth inhibition [Asc];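 further: spheroids exposed to agents for 7 days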;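 on viability, T/C: 100% = DMSO vehicle control wells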
Conditions: for IC50: curve of first compound; for viability, T/C: stronger effect = lower value
Procedure, shortened: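 Stromal components (HUVEC and hMSC) are co-assembled with the cancer cells into multicellular spheroids. Drugs are then added singly or paired, at concentrations falling by half-log increments from a clinically achievable maximum, capped at 10 microM without known Cmax.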

## Cc1nc(N2CCC3(CC2)COC(C)C3N)c(CO)nc1Sc1ccnc(N)c1Cl (configuration not stated) + CCN1C(C(=O)NC23CCC(C(=O)O)(CC2)CC3)C(c2cccc(Cl)c2F)C2(C(=O)Nc3cc(Cl)ccc32)C12CCCCC2
Second compound 0.03 µM
  IC50: > 3 µM
Second compound 0.0949 µM
  IC50: > 3 µM
Second compound 0.3 µM
  IC50: > 3 µM
Second compound 0.949 µM
  IC50: > 3 µM
Second compound 3 µM
  IC50: > 3 µM
Second compound 0.03 µM, first compound 0.00949 µM
  viability, T/C: 103%
Second compound 0.03 µM, first compound 0.03 µM
  viability, T/C: 119%
Second compound 0.03 µM, first compound 0.0949 µM
  viability, T/C: 119%
Second compound 0.03 µM, first compound 0.3 µM
  viability, T/C: 119%
Second compound 0.03 µM, first compound 0.949 µM
  viability, T/C: 114%
Second compound 0.03 µM, first compound 3 µM
  viability, T/C: 95.9%
Second compound 0.0949 µM, first compound 0.00949 µM
  viability, T/C: 110%
Second compound 0.0949 µM, first compound 0.03 µM
  viability, T/C: 91.5%
Second compound 0.0949 µM, first compound 0.0949 µM
  viability, T/C: 123%
Second compound 0.0949 µM, first compound 0.3 µM
  viability, T/C: 102%
Second compound 0.0949 µM, first compound 0.949 µM
  viability, T/C: 104%
Second compound 0.0949 µM, first compound 3 µM
  viability, T/C: 84.3%
Second compound 0.3 µM, first compound 0.00949 µM
  viability, T/C: 101%
Second compound 0.3 µM, first compound 0.03 µM
  viability, T/C: 116%
Second compound 0.3 µM, first compound 0.0949 µM
  viability, T/C: 104%
Second compound 0.3 µM, first compound 0.3 µM
  viability, T/C: 101%
Second compound 0.3 µM, first compound 0.949 µM
  viability, T/C: 110%
Second compound 0.3 µM, first compound 3 µM
  viability, T/C: 90.6%
Second compound 0.949 µM, first compound 0.00949 µM
  viability, T/C: 116%
Second compound 0.949 µM, first compound 0.03 µM
  viability, T/C: 105%
Second compound 0.949 µM, first compound 0.0949 µM
  viability, T/C: 98.5%
Second compound 0.949 µM, first compound 0.3 µM
  viability, T/C: 96%
Second compound 0.949 µM, first compound 0.949 µM
  viability, T/C: 91.9%
Second compound 0.949 µM, first compound 3 µM
  viability, T/C: 102%
Second compound 3 µM, first compound 0.00949 µM
  viability, T/C: 99.9%
Second compound 3 µM, first compound 0.03 µM
  viability, T/C: 97.5%
Second compound 3 µM, first compound 0.0949 µM
  viability, T/C: 102%
Second compound 3 µM, first compound 0.3 µM
  viability, T/C: 120%
Second compound 3 µM, first compound 0.949 µM
  viability, T/C: 88.2%
Second compound 3 µM, first compound 3 µM
  viability, T/C: 115%

## C#Cc1c(F)ccc2cc(O)cc(-c3ncc4c(N5CC6CCC(C5)N6)nc(OCC56CCCN5CC(F)C6)nc4c3F)c12 (configuration not stated) + CNC(C)C(=O)NC1CN(S(=O)(=O)c2cccc(S(=O)(=O)N3CCC4CCC(C(=O)NC(c5ccccc5)c5ccccc5)N4C(=O)C(NC(=O)C(C)NC)C3)c2)CCC2CCC(C(=O)NC(c3ccccc3)c3ccccc3)N2C1=O
Second compound 0.00316 µM
  IC50: > 10 µM
Second compound 0.01 µM
  IC50: > 10 µM
Second compound 0.0316 µM
  IC50: > 10 µM
Second compound 0.1 µM
  IC50: > 10 µM
Second compound 0.316 µM
  IC50: > 10 µM
Second compound 1 µM
  IC50: > 10 µM
Second compound 0.00316 µM, first compound 0.0316 µM
  viability, T/C: 97.9%
Second compound 0.00316 µM, first compound 0.1 µM
  viability, T/C: 101%
Second compound 0.00316 µM, first compound 0.316 µM
  viability, T/C: 93.2%
Second compound 0.00316 µM, first compound 1 µM
  viability, T/C: 87.7%
Second compound 0.00316 µM, first compound 3.16 µM
  viability, T/C: 102%
Second compound 0.00316 µM, first compound 10 µM
  viability, T/C: 104%
Second compound 0.01 µM, first compound 0.0316 µM
  viability, T/C: 109%
Second compound 0.01 µM, first compound 0.1 µM
  viability, T/C: 98.3%
Second compound 0.01 µM, first compound 0.316 µM
  viability, T/C: 97.1%
Second compound 0.01 µM, first compound 1 µM
  viability, T/C: 99.7%
Second compound 0.01 µM, first compound 3.16 µM
  viability, T/C: 107%
Second compound 0.01 µM, first compound 10 µM
  viability, T/C: 93.3%
Second compound 0.0316 µM, first compound 0.0316 µM
  viability, T/C: 103%
Second compound 0.0316 µM, first compound 0.1 µM
  viability, T/C: 97.7%
Second compound 0.0316 µM, first compound 0.316 µM
  viability, T/C: 96.7%
Second compound 0.0316 µM, first compound 1 µM
  viability, T/C: 106%
Second compound 0.0316 µM, first compound 3.16 µM
  viability, T/C: 114%
Second compound 0.0316 µM, first compound 10 µM
  viability, T/C: 90.8%
Second compound 0.1 µM, first compound 0.0316 µM
  viability, T/C: 112%
Second compound 0.1 µM, first compound 0.1 µM
  viability, T/C: 103%
Second compound 0.1 µM, first compound 0.316 µM
  viability, T/C: 97.8%
Second compound 0.1 µM, first compound 1 µM
  viability, T/C: 97.8%
Second compound 0.1 µM, first compound 3.16 µM
  viability, T/C: 112%
Second compound 0.1 µM, first compound 10 µM
  viability, T/C: 96.6%
Second compound 0.316 µM, first compound 0.0316 µM
  viability, T/C: 114%
Second compound 0.316 µM, first compound 0.1 µM
  viability, T/C: 101%
Second compound 0.316 µM, first compound 0.316 µM
  viability, T/C: 104%
Second compound 0.316 µM, first compound 1 µM
  viability, T/C: 104%
Second compound 0.316 µM, first compound 3.16 µM
  viability, T/C: 97.7%
Second compound 0.316 µM, first compound 10 µM
  viability, T/C: 114%
Second compound 1 µM, first compound 0.0316 µM
  viability, T/C: 120%
Second compound 1 µM, first compound 0.1 µM
  viability, T/C: 107%
Second compound 1 µM, first compound 0.316 µM
  viability, T/C: 108%
Second compound 1 µM, first compound 1 µM
  viability, T/C: 95.7%
Second compound 1 µM, first compound 3.16 µM
  viability, T/C: 104%
Second compound 1 µM, first compound 10 µM
  viability, T/C: 114%
